Source: US7557099B2, “Pyrrolobenzodiazepines as key intermediates in the synthesis of dimeric cytotoxic pyrrolobenzodiazepines” (Spirogen Limited, priority 2004, dated 2009)
Read-outs that look alike come from different tables or passages of the source.

Columns and labels:
[1] = test system: approximately 60 human tumour cell lines; assay: NCI 60 cell screen, SRB assay; type: cell-based; conditions: 48 hour continuous exposure
Method: The National Cancer Institute (NCI), Bethesda, Md., USA has available an in vitro cytotoxicity screen which consists of approximately 60 human tumour cell lines against which compounds are tested at a minimum of five concentrations each differing 10-fold. A 48 hour continuous exposure protocol is used, where cell viability or growth is estimated with an SRB protein assay.
The test compounds were evaluated against approximately 60 human tumour cell lines. The NCI screening procedures were described in detail by Monks and co-workers (Monks, A et al., Journal of the National Cancer Institute, 1991, 83, 757). Briefly, cell suspensions were diluted according to the particular cell type and the expected target cell density (5000-40,000 cells per well based on cell growth characteristics), and added by pipette (100 μL) into 96-well microtitre plates. The cells were allowed a preincubation period of 24 hours at 37° C. for stabilisation. Dilutions at twice the intended test concentration were added at time zero in 100 μL aliquots to the wells. The test compounds were evaluated at five 10-fold dilutions (10^−4, 10^−5, 10^−6, 10^−7 and 10^−[…]). The test compounds were incubated for 48 hours in 5% CO2 atmosphere and 100% humidity. The cells were then assayed using the sulphorhodamine B assay. A plate reader was used to read the optical densities and a microcomputer processed the readings into GI50 values (in Moles), which is the dosage required to limit cell growth to 50%.

[2] = test system: K562 human chronic myeloid leukaemia cells; assay: In vitro cytotoxicity, K562 cells, MTT assay; type: cell-based
Method: K562 human chronic myeloid leukaemia cells were maintained in RPM1 1640 medium supplemented with 10% fetal calf serum and 2 mM glutamine at 37° C. in a humidified atmosphere containing 5% CO2 and were incubated with a specified dose of drug for 1 hour or 96 hours at 37° C. in the dark. The incubation was terminated by centrifugation (5 min, 300 g) and the cells were washed once with drug-free medium. Following the appropriate drug treatment, the cells were transferred to 96-well microtiter plates (10^4 cells per well, 8 wells per sample). Plates were then kept in the dark at 37° C. in a humidified atmosphere containing 5% CO2. The assay is based on the ability of viable cells to reduce a yellow soluble tetrazolium salt, 3-(4,5-dimethylthiazol-2-yl)-2,5-diphenyl-2H-tetrazolium bromide (MTT, Aldrich-Sigma), to an insoluble purple formazan precipitate. Following incubation of the plates for 4 days (to allow control cells to increase in number by approximately 10 fold), 20 μL of MTT solution (5 mg/mL in phosphate-buffered saline) was added to each well and the plates further incubated for 5 hours. The plates were then centrifuged for 5 minutes at 300 g and the bulk of the medium pipetted from the cell pellet leaving 10-20 μL per well. DMSO (200 μL) was added to each well and the samples agitated to ensure complete mixing. The optical density was then read at a wavelength of 550 nm on a Titertek Multiscan ELISA plate reader, and a dose-response curve was constructed. For each curve, an IC50 value was read as the dose required to reduce the final optical density to 50% of the control value.

[3] = test system: linear pBR322 DNA; assay: DNA cross-linking, electrophoretic assay (XL50); type: biochemical; conditions: concentration giving 50% cross-linked plasmid DNA; 2 hours, 37° C., pH 7.2
Method: The extent of DNA cross-linking induced by each PBD dimer was determined using the electrophoretic assay method of Hartley, et al. (Hartley, J. A., Berardini, M. D., and Souhami, R. L. (1991) Anal. Biochem. 193, 131-134) based on the principle that, following complete denaturation of linear pBR322 DNA (˜4,300 bp) to the single-stranded (SS) form, an interstrand cross-link results in renaturation to double-stranded (DS) in a neutral gel.
Closed-circular DNA was linearized with HindIII, then dephosphorylated and finally 5′-singly end-labelled using [γ^32P]-ATP and polynucleotide kinase. Reactions containing 30-40 ng of DNA and the test compound were carried out in aqueous TEOA (25 mM triethanolamine, 1 mM EDTA, pH 7.2) buffer at 37° C. in a final volume of 50 μl for 2 hours. Reactions were terminated by addition of an equal volume of stop solution (0.6 M NaOAc, 20 mM EDTA, 100 μg/ml tRNA) followed by precipitation with ethanol. Following centrifugation, the supernatant was discarded and the pellet dried by lyophilization. Samples were re-suspended in 10 μl of strand separation buffer (30% DMSO, 1 mM EDTA, 0.04% bromophenol blue and 0.04% xylene cylanol) and denatured by heating to 90° C. for 2.5 min, followed by immersion in an ice/water bath. Control non-denatured samples were re-suspended in 10 μl of non-denaturing buffer solution (0.6% sucrose, 0.04% bromophenol blue in aqueous TAE buffer [40 mM Tris, 20 mM acetic acid, 2 mM EDTA, pH 8.1]) and loaded directly onto the gel for comparison.
Electrophoresis was carried out for 14-16 h at 40 V using a 0.8% submerged agarose gel (20×25×0.5 cm) in TAE buffer. Gels were dried under vacuum for 2 hour at 80° C. onto one layer each of Whatman 3MM and DE8I filter papers using a BioRad 583 gel dryer. Autoradiographs were obtained after exposure of Hyperfilm-MP film (Amersham plc, U.K.) to the dried gel for either 4 hour with a screen (or over night, without a screen, to obtain a sharper image). Film bands were quantitated using a BioRad GS-670 imaging laser densitometer. Percentage cross-linking was calculated by measuring the total DNA in each lane (summed density for the double-stranded [DS] and single-stranded [SS] bands) relative to the amount of cross-linked DNA (density of DS band alone). A dose-response curve was derived by plotting drug concentration against the determined percentage level of cross-linked DNA which was then analysed to determine the concentration of test compound that results in 50% cross-linked plasmid DNA (XL50).

[4] = Homo sapiens, 96 hr exposure, sub-table of 16e-j, read-out: IC50 96 hr exposure
[5] = Homo sapiens, 1 hr exposure, read-out: IC50 1 hr exposure
[6] = Homo sapiens, sub-table of 29a-c
[7] = Homo sapiens, 96 hr exposure, sub-table of 29a-c, read-out: IC50 96 hr exposure

Structure (SMILES) | GI50 ([1]; Homo sapiens) [nM] | IC50 [2, 5] [nM] | EC50 [3] [nM] | other results
COc1ccc2c(c1)C(=O)N1CCC(OCCCCCCCCCCCCOC3CCN4C(=O)c5cc(OC)ccc5N=C[C@@H]34)[C@@H]1C=N2 (stereo partly drawn) [Compound 16j, 1,1′-[(Dodecane-1,12-diyl)dioxy]bis[(11aS)-7-methoxy-1,2,3,11a-tetrahydro-5H-pyrrolo[2,1-c][1,4]benzodiazepine-5-one]] | 150 | – | – | IC50 [2, 4]: 645 nM
COc1ccc2c(c1)N=C[C@H]1C(OCCCCOC3CCN4C(=O)c5ccc(OC)cc5N=C[C@@H]34)CCN1C2=O (stereo partly drawn) [Compound 9b, 1,1′-[(Butane-1,4-diyl)dioxy]bis[(11aS)-8-methoxy-1,2,3,11a-tetrahydro-5H-pyrrolo[2,1-c][1,4]benzodiazepine-5-one]] | 28100 | > 30000 | – | –
COc1ccc2c(c1)C(=O)N1CCC(OCCCCCCCCCCOC3CCN4C(=O)c5cc(OC)ccc5N=C[C@@H]34)[C@@H]1C=N2 (stereo partly drawn) [Compound 16h, 1,1′-[(Decane-1,10-diyl)dioxy]bis[(11aS)-7-methoxy-1,2,3,11a-tetrahydro-5H-pyrrolo[2,1-c][1,4]benzodiazepine-5-one]] | 54 | – | 5000 | IC50 [2, 4]: 352 nM
COc1ccc2c(c1)C(=O)N1CCC(OCCCCCCCCCOC3CCN4C(=O)c5cc(OC)ccc5N=C[C@@H]34)[C@@H]1C=N2 (stereo partly drawn) [Compound 16g, 1,1′-[(Nonane-1,9-diyl)dioxy]bis[(11aS)-7-methoxy-1,2,3,11a-tetrahydro-5H-pyrrolo[2,1-c][1,4]benzodiazepine-5-one]] | 19 | – | 1500 | IC50 [2, 4]: 26 nM
COc1ccc2c(c1)N=C[C@H]1C(OCCCOC3CCN4C(=O)c5ccc(OC)cc5N=C[C@@H]34)CCN1C2=O (stereo partly drawn) [Compound 9a, 1,1′-[(Propane-1,3-diyl)dioxy]bis[(11aS)-8-methoxy-1,2,3,11a-tetrahydro-5H-pyrrolo[2,1-c][1,4]benzodiazepine-5-one]] | 8910 | > 30000 | > 100000 | –
C=C1CN2C(=O)c3cc(OC)ccc3N=C[C@H]2C1OCCCCCCCCCCOC1C(=C)CN2C(=O)c3cc(OC)ccc3N=C[C@@H]12 (stereo partly drawn) [Compound 29c, 1,1′-[(Decane-1,10-diyl)dioxy]bis[(11aS)-7-methoxy-2-methylene-1,2,3,11a-tetrahydro-5H-pyrrolo[2,1-c][1,4]benzodiazepine-5-one]] | – | – | 3900 | GI50 [1, 6]: 13.2 nM; IC50 [2, 7]: 100 nM
COc1ccc2c(c1)C(=O)N1CCC(OCCCCCCOC3CCN4C(=O)c5cc(OC)ccc5N=C[C@@H]34)[C@@H]1C=N2 (stereo partly drawn) [Compound 16d, 1,1′-[(Hexane-1,6-diyl)dioxy]bis[(11aS)-7-methoxy-1,2,3,11a-tetrahydro-5H-pyrrolo[2,1-c][1,4]benzodiazepine-5-one]] | 310 | 1000 | 750 | –
COc1cc2c(cc1OCCCCCOc1cc3c(cc1OC)N=C[C@@H]1CCCN1C3=O)C(=O)N1CCC[C@H]1C=N2 [Compound 9c, 1,11-[(Pentane-1,5-diyl)dioxy]bis[(11aS)-8-methoxy-1,2,3,11a-tetrahydro-5H-pyrrolo[2,1-c][1,4]benzodiazepine-5-one]] | – | – | – | GI50 [1]: 10200 nM; IC50 ([2]; 1 hr exposure, read-out: IC50 1 hr exposure): > 30000 nM
COc1ccc2c(c1)C(=O)N1CCC(OCCCOC3CCN4C(=O)c5cc(OC)ccc5N=C[C@@H]34)[C@@H]1C=N2 (stereo partly drawn) [Compound 16a, 1,1′-[(Propane-1,3-diyl)dioxy]bis[(11aS)-7-methoxy-1,2,3,11a-tetrahydro-5H-pyrrolo[2,1-c][1,4]benzodiazepine-5-one]] | 3160 | 12800 | 50 | –
COc1ccc2c(c1)N=C[C@H]1C(OCCCCCCCCCCCCOC3CCN4C(=O)c5ccc(OC)cc5N=C[C@@H]34)CCN1C2=O (stereo partly drawn) [Compound 9j, 1,1′-[(Dodecane-1,12-diyl)dioxy]bis[(11aS)-8-methoxy-1,2,3,11a-tetrahydro-5H-pyrrolo[2,1-c][1,4]benzodiazepine-5-one]] | 210 | 9120 | > 100000 | –
C=C1CN2C(=O)c3cc(OC)ccc3N=C[C@H]2C1OCCCCCCCCOC1C(=C)CN2C(=O)c3cc(OC)ccc3N=C[C@@H]12 (stereo partly drawn) [Compound 29a, 1,1′-[(Octane-1,8-diyl)dioxy]bis[(11aS)-7-methoxy-2-methylene-1,2,3,11a-tetrahydro-5H-pyrrolo[2,1-c][1,4]benzodiazepine-5-one]] | – | – | – | GI50 [1, 6]: 13.8 nM
COc1ccc2c(c1)N=C[C@H]1C(OCCCCCCCCOC3CCN4C(=O)c5ccc(OC)cc5N=C[C@@H]34)CCN1C2=O (stereo partly drawn) [Compound 9f, 1,1′-[(Octane-1,8-diyl)dioxy]bis[(11aS)-8-methoxy-1,2,3,11a-tetrahydro-5H-pyrrolo[2,1-c][1,4]benzodiazepine-5-one]] | 1170 | 9720 | 1800 | –
COc1ccc2c(c1)N=C[C@H]1C(OCCCCCCCOC3CCN4C(=O)c5ccc(OC)cc5N=C[C@@H]34)CCN1C2=O (stereo partly drawn) [Compound 9e, 1,1′-[(Heptane-1,7-diyl)dioxy]bis[(11aS)-8-methoxy-1,2,3,11a-tetrahydro-5H-pyrrolo[2,1-c][1,4]benzodiazepine-5-one]] | 2690 | > 30000 | 20000 | –
COc1ccc2c(c1)C(=O)N1CCC(OCCCCCCCCCCCOC3CCN4C(=O)c5cc(OC)ccc5N=C[C@@H]34)[C@@H]1C=N2 (stereo partly drawn) [Compound 16i, 1,1′-[(Undecane-1,11-diyl)dioxy]bis[(11aS)-7-methoxy-1,2,3,11a-tetrahydro-5H-pyrrolo[2,1-c][1,4]benzodiazepine-5-one]] | 220 | – | – | IC50 [2, 4]: 689 nM
C=C1CN2C(=O)c3cc(OC)ccc3N=C[C@H]2C1OCCCCCCCCCOC1C(=C)CN2C(=O)c3cc(OC)ccc3N=C[C@@H]12 (stereo partly drawn) [Compound 29b, 1,1′-[(Nonane-1,9-diyl)dioxy]bis[(11aS)-7-methoxy-2-methylene-1,2,3,11a-tetrahydro-5H-pyrrolo[2,1-c][1,4]benzodiazepine-5-one]] | – | – | 1500 | GI50 [1, 6]: 20.9 nM; IC50 [2, 7]: 33.8 nM
COc1ccc2c(c1)N=C[C@H]1C(OCCCCCCOC3CCN4C(=O)c5ccc(OC)cc5N=C[C@@H]34)CCN1C2=O (stereo partly drawn) [Compound 9d, 1,1′-[(Hexane-1,6-diyl)dioxy]bis[(11aS)-8-methoxy-1,2,3,11a-tetrahydro-5H-pyrrolo[2,1-c][1,4]benzodiazepine-5-one]] | 4000 | > 30000 | – | –
